Laboratory results published in article PMC5484537 (Bioorganic & medicinal chemistry, 2016).

Columns and labels:
[1] = test system: panel of 468 kinases and mutants; assay: KINOMEscan in vitro ATP-site competition binding assay, kinome selectivity; design: species or system human; conditions: KINOMEscan at 1 μM; for selectivity score S(1): 468 kinases and mutants, kinases with scores less than 1
TAK1 [2] = target: T1, TAK1 (Homo sapiens, UniProt O43318); assay: Mass spectrometry analysis of purified TAK1 incubated with compound; format: binding; conditions: Fig S3
T1 sequence (O43318 with tags, fused parts or gaps): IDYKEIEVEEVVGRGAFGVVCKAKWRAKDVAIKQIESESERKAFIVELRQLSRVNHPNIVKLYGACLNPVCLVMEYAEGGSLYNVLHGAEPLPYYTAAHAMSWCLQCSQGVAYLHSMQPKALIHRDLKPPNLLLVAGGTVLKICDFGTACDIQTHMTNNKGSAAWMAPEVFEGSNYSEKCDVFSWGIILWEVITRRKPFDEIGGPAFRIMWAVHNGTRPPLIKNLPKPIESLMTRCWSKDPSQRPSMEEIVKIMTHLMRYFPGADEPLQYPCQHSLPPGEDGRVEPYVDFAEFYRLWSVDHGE

TAK1 [3] = target: T2, TAK1 (Homo sapiens, UniProt O43318); assay: KINOMEscan binding to TAK1; conditions: for binding to TAK1 in KINOMEscan: concentration of 1 μM
T2 sequence (O43318 1-606): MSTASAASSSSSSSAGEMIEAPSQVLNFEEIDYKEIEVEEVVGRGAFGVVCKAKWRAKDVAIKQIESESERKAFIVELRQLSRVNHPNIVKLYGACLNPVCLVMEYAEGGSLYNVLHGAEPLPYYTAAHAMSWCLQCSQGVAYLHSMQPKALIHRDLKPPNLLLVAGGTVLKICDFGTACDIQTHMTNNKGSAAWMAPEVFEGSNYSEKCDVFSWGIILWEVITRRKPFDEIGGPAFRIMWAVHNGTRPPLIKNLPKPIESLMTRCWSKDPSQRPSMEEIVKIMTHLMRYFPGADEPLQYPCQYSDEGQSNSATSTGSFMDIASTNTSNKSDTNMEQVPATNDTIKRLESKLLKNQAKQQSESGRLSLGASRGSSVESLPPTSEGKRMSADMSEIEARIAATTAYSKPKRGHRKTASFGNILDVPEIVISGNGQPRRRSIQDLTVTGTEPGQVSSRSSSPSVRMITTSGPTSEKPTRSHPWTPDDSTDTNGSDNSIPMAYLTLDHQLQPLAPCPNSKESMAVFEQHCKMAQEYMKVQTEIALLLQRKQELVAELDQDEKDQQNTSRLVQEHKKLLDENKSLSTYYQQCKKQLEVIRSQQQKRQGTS

ERK2 = ERK2 (Homo sapiens, UniProt P28482); assay: Z'-Lyte activity assay, ERK2; format: biochemical; conditions: compound incubation time of 60 min
TAK1 [4] = target: T3, TAK1 (Homo sapiens, UniProt O43318); assay: Time-dependent experiments, Kinact/Ki determination; format: binding
T3 sequence (O43318 1-303 limits assumed): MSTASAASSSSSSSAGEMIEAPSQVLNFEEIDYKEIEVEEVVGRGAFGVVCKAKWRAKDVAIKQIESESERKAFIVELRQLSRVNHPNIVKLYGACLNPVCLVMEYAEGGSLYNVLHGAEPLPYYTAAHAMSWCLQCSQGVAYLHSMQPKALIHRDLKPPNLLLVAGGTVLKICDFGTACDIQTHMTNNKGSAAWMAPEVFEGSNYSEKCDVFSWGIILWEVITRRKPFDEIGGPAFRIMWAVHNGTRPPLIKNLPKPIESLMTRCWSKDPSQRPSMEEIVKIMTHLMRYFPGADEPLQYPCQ

Chain of ERK2 (P28482 2-360): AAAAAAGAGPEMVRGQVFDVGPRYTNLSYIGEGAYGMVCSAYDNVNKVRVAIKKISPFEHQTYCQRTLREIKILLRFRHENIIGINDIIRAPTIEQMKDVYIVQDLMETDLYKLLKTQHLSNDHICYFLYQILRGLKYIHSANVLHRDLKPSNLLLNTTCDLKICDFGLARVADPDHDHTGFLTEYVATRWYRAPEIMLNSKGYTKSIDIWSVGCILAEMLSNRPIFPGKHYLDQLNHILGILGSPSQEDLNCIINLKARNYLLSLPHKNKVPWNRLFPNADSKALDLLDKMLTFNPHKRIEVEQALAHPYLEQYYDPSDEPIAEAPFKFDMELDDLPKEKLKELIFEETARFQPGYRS

SMILES: C=CC(=O)Oc1ccccc1Nc1nc(Nc2ccc(N3CCN(C)CC3)cc2)ncc1Cl [compound 7, 2-((5-chloro-2-((4-(4-methylpiperazin-1-yl)phenyl)amino)pyrimidin-4-yl)amino)phenyl acrylate]
- selectivity score S(1) [1]: 0.19

SMILES: C=CC(=O)Nc1ccccc1Oc1nc(Nc2ccc(N3CCN(C)CC3)cc2)ncc1Cl [compound 2, N-(2-((5-chloro-2-((4-(4-methylpiperazin-1-yl)phenyl)amino)pyrimidin-4-yl)oxy)phenyl)acrylamide]
- labeling of TAK1 residue (TAK1 [2]): exclusive labeling of Cys174

SMILES: C=CC(=O)Nc1ccccc1Oc1nc(Nc2cnn(CCOC)c2)ncc1Cl [compound 25]
- selectivity score S(5) [1]: 0.03
- binding to TAK1 in KINOMEscan (TAK1 [3]): TAK1 was not ranked among the strongest hits

SMILES: COc1cc(O)c2c(c1)/C=C/C[C@H](O)[C@H](O)C(=O)/C=C\C[C@H](C)OC2=O [5Z7, 5Z-7-oxozeaenol, reference compound]
- inhibition score against TAK1 in KINOMEscan (TAK1 [3]; 10 μM): moderate inhibition score
- binding to TAK1 in KINOMEscan (TAK1 [3]): did not display strong binding

SMILES: C=CC(=O)Nc1ccccc1Nc1nc(Nc2ccc(N3CCN(C)CC3)cc2)ncc1Cl [compound 5, N-(2-((5-chloro-2-((4-(4-methylpiperazin-1-yl)phenyl)amino)pyrimidin-4-yl)amino)phenyl)acrylamide]
- Enzymatic IC50s ERK2 (ERK2): weak activity
- binding to kinases with a cysteine at the DFG-1 position [1]: binds to TAK1 and ten other kinases with a cysteine at the DFG-1 position
- selectivity score S(1) [1]: 0.10
- kinact/KI (TAK1 [4]): 6870 M⁻¹ s⁻¹

SMILES: CCC(=O)Nc1ccccc1Nc1nc(Nc2ccc(N3CCN(C)CC3)cc2)ncc1Cl [compound 9]
- binding to kinases with a cysteine at the DFG-1 position [1]: hits no kinases with a cysteine at the DFG-1 position
- selectivity score S(1) [1]: 0.10

SMILES: C=CC(=O)Nc1ccccc1Oc1nc(Nc2cnn(C(F)F)c2)ncc1Cl [compound 23]
- selectivity score S(5) [1]: 0.1
- binding to TAK1 in KINOMEscan (TAK1 [3]): TAK1 was not ranked among the strongest hits
